Laboratory results as given in the Kinase Knowledgebase extract (Sharma et al. 2016).

These compounds were tested against MAPK14 (UniProt Q16539) (assay: Inhibition of MAPK14 Kinase Activity).
Chain of MAPK14 (Q16539 whole entry, looked up): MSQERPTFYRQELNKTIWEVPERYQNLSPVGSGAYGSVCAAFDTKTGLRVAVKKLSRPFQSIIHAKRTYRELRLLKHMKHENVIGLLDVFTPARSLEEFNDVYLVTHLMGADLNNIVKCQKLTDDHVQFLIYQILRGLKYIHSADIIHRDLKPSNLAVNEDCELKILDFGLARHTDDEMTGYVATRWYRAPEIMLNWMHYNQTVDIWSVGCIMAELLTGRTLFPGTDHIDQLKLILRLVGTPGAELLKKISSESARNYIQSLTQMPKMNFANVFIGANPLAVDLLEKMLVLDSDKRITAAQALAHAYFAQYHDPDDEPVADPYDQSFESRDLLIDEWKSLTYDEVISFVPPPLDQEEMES

| SMILES | IC50 [µM] |
| --- | --- |
| C/C=C/C(C)(C)NC(=O)c1ccc(-c2cc(C(=O)NC3CC3)cc(F)c2C)nc1 | < 10 |
| Cc1c(F)cc(C(=O)NC2CC2)cc1-c1ccc(C(=O)NCc2cc(F)c(F)c(F)c2)cn1 | < 10 |
| Cc1c(F)cc(C(=O)NC2CC2)cc1-c1ccc(C(=O)N(C)CC(C)C)cn1 | < 10 |
| CCC1CCCCN1C(=O)c1ccc(-c2cc(C(=O)NC3CC3)cc(F)c2C)nc1 (configuration not stated) | < 10 |
| CCN(C(=O)c1ccc(-c2cc(C(=O)NC3CC3)cc(F)c2C)nc1)C(C)C | < 10 |
| COC(C)(C)CNC(=O)c1ccc(-c2cc(C(=O)NC3CC3)cc(F)c2C)nc1 | < 10 |
| Cc1ccc(CNC(=O)c2ccc(-c3cc(C(=O)NC4CC4)cc(F)c3C)nc2)cc1F | < 10 |
| Cc1ccc(C(=O)Nc2nncs2)cc1-c1ccc(C(=O)NCC2CC2)cn1 | < 10 |
| Cc1ccc(CNC(=O)c2ccc(-c3cc(C(=O)NC4CC4)cc(F)c3C)nc2)c(F)c1F | < 10 |
| Cc1c(F)cc(C(=O)NC2CC2)cc1-c1ccc(C(=O)NCc2ccc(F)cc2)cn1 | < 10 |
| Cc1c(F)cc(C(=O)NC2CC2)cc1-c1ccc(C(=O)NCc2cc(F)cc(F)c2F)cn1 | < 10 |
| Cc1ccc(C(=O)Nc2nncs2)cc1-c1ccc(C(=O)Nc2ccccc2CN2CCN(C)CC2)cn1 | < 10 |
| COc1cccc(CNC(=O)c2ccc(-c3cc(C(=O)NC4CC4)ccc3C)nc2)c1 | < 10 |

Next, values leading:

| IC50 [µM] | SMILES |
| --- | --- |
| < 10 | Cc1c(F)cc(C(=O)NC2CC2)cc1-c1ccc(C(=O)N2CCCCC2C)cn1 (configuration not stated) |
| < 10 | COc1cccc(NC(=O)c2ccc(-c3cc(C(=O)NC4CC4)cc(F)c3C)nc2)c1 |
| < 10 | CCC(C)(C)NC(=O)c1ccc(-c2cc(C(=O)NC3CC3)cc(F)c2C)nc1 |
| < 10 | Cc1c(F)cc(C(=O)NC2CC2)cc1-c1ccc(C(=O)NCc2ccc(Cl)cc2)cn1 |
| < 10 | CCC(C)NC(=O)c1ccc(-c2cc(C(=O)NC3CC3)cc(F)c2C)nc1 (configuration not stated) |
| < 10 | Cc1c(F)cc(C(=O)NC2CC2)cc1-c1ccc(C(=O)NCC(C)C(F)(F)F)cn1 (configuration not stated) |
| < 10 | Cc1ccc(CNC(=O)c2ccc(-c3cc(C(=O)NC4CC4)cc(F)c3C)nc2)o1 |
| < 10 | Cc1c(F)cc(C(=O)NC2CC2)cc1-c1ccc(C(=O)NCc2cc(Cl)ccc2F)cn1 |
| < 10 | COc1cccc(CNC(=O)c2ccc(-c3cc(C(=O)Nc4nncs4)ccc3C)nc2)c1 |
